Experimental data published in patent US12662483B2, “Cocrystalline forms of FGFR3 inhibitors” (Eli Lilly and Company, priority 2022, dated 2026).
Converted amounts (≈) assume the structure as drawn.

How the values were obtained:
FGFR3 protein = target: T1, FGFR3 protein (Homo sapiens, UniProt P22607); test: FGFR3 enzyme assay (KinEASE-TK HTRF); assay type: biochemical; settings: at Km ATP, 0.25 nM enzyme
T1 construct: purchased Reaction Biology 1068
Procedure: Enzyme activity was monitored using the KinEASE™-TK Assay Kit (CisBio, Cat. No. 62TK0PEC) according to the manufacturer's instructions. All assays were performed at the respective KmATP for each kinase in KinEASE™ Kinase Buffer.
Titration of Isomers 1, 2, and A were performed in a half-log manner in 100% dimethyl sulfoxide (DMSO) starting at 1 uM. Prior to the initiation of the reaction by adenosine triphosphate (ATP), FGFR1 protein and Isomers 1, 2, and A were pre-incubated for 15 minutes at room temperature, and FGFR3 protein and Isomers 1, 2, and A were pre-incubated on ice for 15 minutes. Reactions proceeded for 30 min at 30° C. Plates were quenched by the addition of the Anti-TK cryptate antibody/Streptavidin-XL665 mixture.
Ratios were converted to a percent of control (POC) using a ratiometric emission factor. One hundred POC was determined using no test compound, and 0 POC was determined in the presence of 1 uM of an appropriate control inhibitor. A 4-parameter logistic curve was fit to the POC values as a function of the concentration of Isomers 1, 2, and A, and the IC50 value was the point where the best fit curve crossed 50 POC.

[1] = Solubility in aqueous and biorelevant media (HPLC of supernatant); settings: for solubility at 24 h: thermodynamic from solid
Excerpt: Samples of Isomer 2 IPMC SDD, Isomer 2 HPMC-AS-M SDD, Isomer 2 PVP-VA SDD, and the cocrystalline form of Formula I or Formula II were centrifuged.

[2] = Solid state stability at 40° C./75% RH, caps off; assay type: physicochemical; settings: 40° C. and 75% relative humidity
[3] = Dynamic vapor sorption (DVS); assay type: physicochemical; settings: 25° C.
Procedure: Dynamic vapor sorption (DVS) analysis is obtained at 25° C. using a TA Instruments Q5000SA VTI flow moisture balance running TA Thermal Advantage, v5.2.6 and Universal Analysis 2000, v4.5a Software. The equilibrium criterion was <0.01% weight change in 5 minutes for a maximum of 60 minutes. Humidity verification calibration was performed with sodium bromide. The weight calibration was performed with manufacturer-supplied standards.
A prepared sample of the cocrystalline form of Formula I is characterized by dynamic vapor sorption as having a range of water content from about 1% at 0% RH to about 3.2% at 90% RH.

[4] = fasted simulated intestinal fluid

T1 sequence (P22607 23-806): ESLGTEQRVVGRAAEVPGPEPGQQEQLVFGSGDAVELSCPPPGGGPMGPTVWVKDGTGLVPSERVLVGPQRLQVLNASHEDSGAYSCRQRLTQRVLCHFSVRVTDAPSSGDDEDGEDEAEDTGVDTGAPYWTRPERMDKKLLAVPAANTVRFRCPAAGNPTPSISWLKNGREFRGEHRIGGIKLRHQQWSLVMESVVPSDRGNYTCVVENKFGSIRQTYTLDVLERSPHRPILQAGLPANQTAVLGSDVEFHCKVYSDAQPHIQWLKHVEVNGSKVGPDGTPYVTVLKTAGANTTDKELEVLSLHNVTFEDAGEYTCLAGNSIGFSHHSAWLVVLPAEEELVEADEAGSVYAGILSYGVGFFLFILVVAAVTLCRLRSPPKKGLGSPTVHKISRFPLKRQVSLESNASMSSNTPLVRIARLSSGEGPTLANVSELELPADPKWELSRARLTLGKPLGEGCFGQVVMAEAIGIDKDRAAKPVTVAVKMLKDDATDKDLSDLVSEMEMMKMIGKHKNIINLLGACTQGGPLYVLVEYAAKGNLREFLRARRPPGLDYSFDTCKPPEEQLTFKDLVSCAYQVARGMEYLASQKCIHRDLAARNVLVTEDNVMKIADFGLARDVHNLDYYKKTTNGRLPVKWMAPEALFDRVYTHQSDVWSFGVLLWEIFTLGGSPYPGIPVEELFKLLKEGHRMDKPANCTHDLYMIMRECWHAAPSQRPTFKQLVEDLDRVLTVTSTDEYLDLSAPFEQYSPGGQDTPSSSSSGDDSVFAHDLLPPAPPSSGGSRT

Cc1c(-c2cc(O[C@H](CO)c3ccccn3)c3c(Cl)cnn3c2)nnn1C1CCN(C#N)CC1 [Isomer A, 4-[4-[3-chloro-4-[2-hydroxy-1-(2-pyridyl)ethoxy]pyrazolo[1,5-a]pyridin-6-yl]-5-methyl-triazol-1-yl]piperidine-1-carbonitrile, Isomer 1]
IC50 (FGFR3 protein): < 50 nM

Cc1c(-c2cc(O[C@H](CO)c3ccc(F)cn3)c3c(Cl)cnn3c2)nnn1C1CCN(C#N)CC1 [Isomer 2, 4-[4-[3-chloro-4-[1-(5-fluoro-2-pyridyl)-2-hydroxy-ethoxy]pyrazolo[1,5-a]pyridin-6-yl]-5-methyl-triazol-1-yl]piperidine-1-carbonitrile, Isomer 2]
solubility at 24 h ([1]; 0.01N aqueous HCl, simulated gastric fluid): 7 µg/mL (≈ 14.1 µM)
solubility at 24 h ([1]; 0.1N aqueous HCl, simulated gastric fluid): 12 µg/mL (≈ 24.1 µM)
solubility at 24 h ([1]; acetate buffer USP, pH 4.5, aqueous buffer): 6 µg/mL (≈ 12.1 µM)
solubility at 24 h ([1]; phosphate buffer USP, pH 6, aqueous buffer): 6 µg/mL (≈ 12.1 µM)
solubility at 24 h ([1]; phosphate buffer USP, pH 7.5, aqueous buffer): 5 µg/mL (≈ 10.1 µM)
solubility at 24 h ([1]; simulated gastric fluid): 47 µg/mL (≈ 94.6 µM)
solubility at 24 h ([1]; simulated intestinal fluid (fasted), fassif): 10 µg/mL (≈ 20.1 µM)
solubility at 24 h ([1]; simulated intestinal fluid (fed), fessif): 38 µg/mL (≈ 76.5 µM)
solubility at 24 h ([1]; water): 6 µg/mL (≈ 12.1 µM)

Cc1c(-c2cc(O[C@H](CO)c3ccc(F)cn3)c3c(Cl)cnn3c2)nnn1C1CCN(C#N)CC1 (single isomer, unassigned; isomer 2) [cocrystalline form of Formula I, 4-[4-[3-Chloro-4-[1-(5-fluoro-2-pyridyl)-2-hydroxy-ethoxy]pyrazolo[1,5-a]pyridin-6-yl]-5-methyl-triazol-1-yl]piperidine-1-carbonitrile, Isomer 2, Hemi-Gallic Acid Cocrystalline Form, Hemihydrate]
stability relative to SDD formulations of Isomer 2 (IPMC, HPMC-AS-M, PVP-VA) [2]: more stable
solubility relative to Isomer 2 with IPMC SDD [1, 4]: about two to about three times more soluble
solubility relative to freebase form of Isomer 2 [1, 4]: about four to about five times more soluble
water content by dynamic vapor sorption ([3]; 0% RH): about 1%
water content by dynamic vapor sorption ([3]; 90% RH): about 3.2%
